This is an account of results in patent publication US7030104B2, “Topical oestroprogestational compositions with a systemic effect” (Laboratoire Theramex, priority 2000, dated 2006).

A short description of data set [1]: In vitro percutaneous passage on static diffusion cells (Franz cells), radiolabelled active ingredients. As to conditions: 24 hours. It counts as in vitro ADME, human.
Method: Percutaneous absorption is studied in vitro on static diffusion cells, called Franz cells™. The percutaneous passage of the active ingredients is evaluated by measuring the radioactivity using labelled molecules (carbon 14, tritium). The overall quantity of active ingredient absorbed is measured, at different times, in the receiving compartment.
A cutaneous biopsy is horizontally maintained between the two parts of the cell thus delimiting on both sides of the sample, two compartments: one of them epidermic, constituted by a glass cylinder, of a defined area (1.76 cm^2), placed on the upper surface of the skin; the other dermic (or receptor), on the underside of the biopsy, comprises a fixed volume reservoir with a side nozzle. The two compartments are kept in place through the intermediary of a clamp. […]
The preparations to be studied are applied in weighed quantities, using a spatula over all of the epidermal area circumscribed by the glass cone. […] The samples removed are treated with Pico-fluorine 40™ scintillation liquid and the activity measured using a liquid scintillation counter. […]
The percutaneous passage of the active ingredients is evaluated at the time of each sampling by measuring the cumulative quantity (μg) of active ingredient as a function of time.
The conditions of data set [2]: known pharmacokinetics; Patent FR 2.776.191; cited from earlier work.

`C[C@]12CC[C@@H]3c4ccc(O)cc4CC[C@H]3[C@@H]1CC[C@@H]2O` [estradiol, 17beta estradiol]: in data set [1] (gel G29-299 (NAc + E2) versus TX11323 (E2 only)), the “change of percutaneous penetration of estradiol caused by presence of nomegestrol acetate” value is reported as −51%.

As to `CC(=O)O[C@]1(C(C)=O)CC[C@H]2[C@@H]3C=C(C)C4=CC(=O)CC[C@@H]4[C@H]3CC[C@@]21C` [nomegestrol acetate], the “plasmatic concentration of nomegestrol acetate for clinical effectiveness (endometrial effect through bleedings)” value in data set [2] was at least 0.7 ng/mL. The “change of percutaneous passage of nomegestrol acetate caused by presence of estradiol” value in data set [1] (gel G29-299 (NAc + E2) versus G29-287 (NAc only)) is listed as “+39%”.
